The record followed here is US12171813B2, “Methods of and compositions for reducing gene expression and/or activity” (Christiana Care Gene Editing Institute, Inc., priority 2021, dated 2024).

Data set [1] relates to EGFR gene. The data set is described as follows: Screening of SureKill guide RNAs in the EGFR gene for ability to induce indels. Type of data set: cell-based. The conditions noted are these: transfections of individual guide RNAs (spCas9 RNP); PDMR human lung adenocarcinoma cells with EGFR L858R; DECODR. The procedure:
(§1) Human lung squamous cell carcinoma NCI-H1703 clone 44-25 cells were derived from NCI-H1703 cells (#CRL-5889) which were purchased from ATCC (Manassas, VA, USA). NCI-H1703 clone 44-25 cells contains R34G mutation (C 4 G) in NFE2L2 gene. H1703 clone 44-25 cells were cultured in ATCC formulation RPMI-1640 with 10% FBS. T75 flasks were used and cells were split 1:5 upon reaching 90% confluency. Human lung adenocarcinoma cells (Dist. Lot. No. LG0703-F948-PDC) were acquired from the National Institute of Health's National Cancer Institute's Patient-Derived Models Repository (PDMR). This PDMR cell line contains the L858R mutation (T 4 G) in the EGFR gene. The PDMR cells were maintained in Advanced DMEM/F12 media containing 10% FBS, 0.4 μg/mL hydrocortisone, 0.01 μg/mL EGF Recombinant Human Protein, 24 μg/mL adenine, and 2 mM L-Glutamine. T75s were used and cells were split 1:3 upon reaching 90% confluency. All cultures were maintained in cell culture incubators at 37° C. and 5% CO2.
(§2) Ribonucleoproteins (RNP) are complexed by incubating 250 pmol of purified synthetic gRNA (Synthego Corporation, Redwood City, CA) with 50 pmol of purified spCas9 (Synthego Corporation, Redwood City, CA) at room temperature in nuclease-free 1× TE buffer for 15 minutes.
(§3) Transfections were carried out using the Lonza Nuclefector 4d. Cultures in t75s at 90% confluence were split 1:2 24 hours prior to transfection. RNPs were complexed at 250:50 pmol for 30 minutes prior to transfection, during which time cells were harvested and counted. All reactions were 100 μL and contained 1 e6 cells. Lonza SF solution and Nucleofector program CM-130 were used in all transfections of the H1703 cell line. Lonza SE solution and Nucleofector program CA-137 were used in all transfections of the PDMR. After transfection, 500 μL of media that had been equilibrated to cell culture CO2 and temperature conditions was added to each 100 μL cuvettes. Cuvettes were then placed in the incubator. After 20 minutes, the entire content of each cuvette was seeded into 3 mL of media in a 6 well plate. After 72 hours, samples were dissociated using 200 μL Trypsin 0.25% for 5 minutes. 800 μL culture media was used to quench and split into 1.5 mL tubes each containing 500 μL of the sample. Tubes were spun at 300×g for 5 minutes. One of the tubes was placed in the −20° C. freezer and the other was resuspended in 500 μL of Trizol for RNA extraction and cDNA synthesis.
(§4) All sequencing was performed on the Applied Biosystems SeqStudio. The BigDye Terminator v3.1 Cycle Sequencing Kit was used to prepare samples for sequencing. Resulting sequences were analyzed with DECODR to determine indel rates (Bloh et al., CRISPR J. 4:120-31 (2021)).
Human EGFR is a frequently mutated gene that is associated with cancers. One of the most common mutations is L858R which results in the creation of a novel PAM site, making it a targetable sequence by CRISPR. Like the R34G mutation, the CRISPR designed to target the L858R mutation is not highly efficient on its own. By combining the L858R-targeting CRISPR with another CRISPR of high efficiency in a downstream intronic region, exon skipping can be induced, resulting in a higher efficiency of functional knockout than the L858R targeting CRISPR alone. To find a suitable gRNA to pair with the L858R targeting CRISPR, we selected the intron between exons 21 and 22 (FIG. 6). A series of gRNAs were created in this region and screened for their ability to induce indels, a measure of their activity using DECODR (Bloh et al., CRISPR J. 4:120-31 (2021)) (Table 3).
In Table 3, all sequences are listed from 5′ to 3′. Indel percent, a measure of CRISPR activity, is based on transfections of individual guide RNAs. All guide RNAs, with the exception of L858R, were designed in the intron between exons 21 and 22.

For data set [2], the system named is NFE2L2 gene. Nature of the data set: Screening of SureKill guide RNAs in the NFE2L2 gene for ability to induce indels. Type of data set: cell-based, Human. The conditions noted are these: transfections of individual guide RNAs (spCas9 RNP); NCI-H1703 clone 44-25 cells; DECODR. The procedure:
as §1, §2, §3, §4
In some cancers, human NRF2 contains a mutation, R34G, that creates a novel PAM site making it a targetable sequence by CRISPR. By combining the R34G-targeting CRISPR with another CRISPR of high efficiency in a downstream intronic region, exon skipping can be induced, resulting in a higher efficiency of functional knockout than the R34G targeting CRISPR alone. To find a suitable SureKill guide RNA (gRNA) to pair with the R34G targeting CRISPR, we selected the intron between exons 3 and 4 (FIG. 2). A series of gRNAs were created in this region and screened for their ability to induce indels, a measure of their activity (Table 2).
In Table 2, all sequences are listed from 5′ to 3′. Indel %, a measure of CRISPR activity, is based on transfections of individual guide RNAs. All guide RNAs, with the exception of R34G, were designed in the intron between exons 3 and 4.

Data set [3] has as its system NRF2. Nature of the data set: cDNA PCR analysis of exon skipping / full-size transcript in NFE2L2. The format is cell-based, Human. Conditions: gRNA individually applied in the CRISPR reaction; NCI-H1703 clone 44-25 cells. The procedure: After CRISPR reactions, total RNA was prepared, and cDNA synthesized for PCR amplification of the target region from NRF2. PCR-amplified DNA was then analyzed by electrophoresis through a 1% agarose gel for 75 minutes at 80v. DNA was stained with SYBR Safe. Lanes 1 and 10: NEB 2 Log Ladder; Lane 2: Scrambled gRNA; Lane 3: NRF2 3-4 SureKill gRNA 3 alone; Lane 4: NRF2 3-4 SureKill gRNA 12 alone; Lane 5: NRF2 3-4 SureKill gRNA 14 alone; Lane 6: NRF2 3-4 SureKill gRNA 15 alone; Lane 7: NRF2 3-4 SureKill gRNA 21 alone; Lane 8: NRF2 3-4 SureKill gRNA 25 alone; Lane 9: NRF2 3-4 SureKill gRNA 26 alone. On the left side of the image are markers indicating DNA size in bp.
After CRISPR reactions, total RNA was prepared, and cDNA synthesized for PCR amplification of the target region from NRF2. PCR-amplified DNA was then analyzed by electrophoresis through a 1% agarose gel for 75 minutes at 80v. DNA was stained with SYBR Safe. Lane 1: NEB 2 Log Ladder; Lane 2: Scrambled gRNA; Lane 3: R34G gRNA alone; Lane 4: NRF2 3-4 SureKill gRNA 3+R34G gRNA; Lane 5: NRF2 3-4 SureKill gRNA+R34G gRNA; Lane 6: NRF2 3-4 SureKill gRNA 14+R34G gRNA. […]
Transfections were carried out using the Lonza Nuclefector 4d. […] RNPs were complexed at 250:50 pmol for 30 minutes prior to transfection, during which time cells were harvested and counted. […]

As to “EGFR 21-22 SureKill gRNA 2: EGFR intron 21-22 guide RNA GTATTGTTTAACACATGCAG, SEQ ID NO:10 (listed as DNA, chemistry not given here)”, the indel % in data set [1] came out at 2%.
Still for that read-out and setting: the same measure for “EGFR 21-22 SureKill gRNA 10A: EGFR intron 21-22 guide RNA GTTTAACACATGCAGGGG, SEQ ID NO:35 (listed as DNA, chemistry not given here)”: 0%; for “EGFR 21-22 SureKill gRNA 10B: EGFR intron 21-22 guide RNA GTATTGTTTAACACATGCAGGGG, SEQ ID NO:36 (listed as DNA, chemistry not given here)”: 0%; for “EGFR 21-22 SureKill gRNA 23: EGFR intron 21-22 guide RNA GCATTTTCCTGACACCAGGGACC, SEQ ID NO:47 (listed as DNA, chemistry not given here)”: 96.15%.
Same read-out and setting: the result for “EGFR 21-22 SureKill gRNA 29: EGFR intron 21-22 guide RNA GTTAAACAATACAGCTAGT, SEQ ID NO:52 (listed as DNA, chemistry not given here)” reads 100%.
“NRF2 3-4 SureKill gRNA 10: NRF2 intron 3-4 guide RNA GGTTTTGTATTGTGTGAA, SEQ ID NO:15 (listed as DNA, chemistry not given here)” returned an indel % in data set [2] of 32.2%.
On to “NRF2 3-4 SureKill gRNA 26: NRF2 intron 3-4 guide RNA GCTTACTCATCCCCTGTTGG, SEQ ID NO:28 (listed as DNA, chemistry not given here)”, for which the “exon skipping (cDNA analysis)” value in data set [3] is “some level of exon skipping”. Further, the indel % in data set [2] worked out at 89.65%.
“NRF2 3-4 SureKill gRNA 29a: NRF2 intron 3-4 guide RNA GATTCCATTTTGTTTTGTAG, SEQ ID NO:30 (listed as DNA, chemistry not given here)” came in with an indel % in data set [2] of 11.85%.
As to “NRF2 3-4 SureKill gRNA 29b: NRF2 intron 3-4 guide RNA GATTTATGAGTCTTCCACCAAC, SEQ ID NO:31 (listed as DNA, chemistry not given here)”, the indel % in data set [2] was 11.8%.
Same read-out and setting: the same measure for “NRF2 3-4 SureKill gRNA 31: NRF2 intron 3-4 guide RNA GTTTGGTGAGTAAAGAGCCAGC, SEQ ID NO:33 (listed as DNA, chemistry not given here)”: 14.55%.
On the same count and under the same terms, the result for “NRF2 3-4 SureKill gRNA 32: NRF2 intron 3-4 guide RNA GGTTATGCTGTCCATGTTTC, SEQ ID NO:34 (listed as DNA, chemistry not given here)” reads 47.8%.
